Series [1] addresses T1, μI-II (C115S) (Rattus norvegicus, UniProt P97571, C115S).
T1 construct: extended from residue 29 (MG^29RHENA-) to residue 356; added N-terminal Met (N); made in house; host or cells: E. coli BL21 (DE3)
Briefly: Intrinsic tryptophan fluorescence of μI-II during Ca2+ titration. As to conditions: for ability to substitute for CaCl2 in the intrinsic tryptophan fluorescence change: concentrations up to 30 mM. Type of series: binding. On the procedure: Intrinsic tryptophan fluorescence measurements were performed in a Perkin Elmer LS50B fluorescence spectrophotometer at 22° C. using a stirrer-adapted 4 mL cuvette (Helmma). Excitation and emission wavelength were set at 280 nm and 340 nm, respectively. The reaction buffer was the same as that used for activity measurements against SLY-MCA, and the protein concentration was 0.65 μM. […] CaCl2 (50 mM) dissolved in the reaction buffer was pumped continuously (4 μL/min, Harvard Apparatus pump 22) using a 250 μL microsyringe (Hamilton-microliter 1000 series gastight) through a tube into the cuvette. The reaction mixture was vigorously mixed using the internal magnetic stirrer of the fluorimeter. The fluorescence intensity was corrected for dilution, and the normalised data was fitted to the Hill equation y=x^n/k^n+x^n), where y is the fraction of maximum intensity change, k=[Ca^2+]0.5 (the value of [Ca^2+] at which half-maximum intensity change is observed, n is the Hill coefficient, and x is [Ca^2+]. Intrinsic tryptophan fluorescence measurements were also performed under the same buffer conditions but substituting for CaCl2, either MgCl2, MnCl2, or ZnCl2 up to 30 mM. To test the aggregation state of the domain I–II constructs, relative 90° light scattering was monitored under the same reaction conditions by setting both the excitation and emission wavelength of the spectrophotometer to 320 nm. No significant aggregation was detected even at the highest CaCl2 concentration (30 mM) tested.

Series [2] deals with T2, μI-II (domain I-II construct from μ-calpain) (Rattus norvegicus, UniProt P97571).
T2 construct: extended from residue 29 (MG^29RHENA-) to residue 356; added N-terminal Met (N); made in house; host or cells: E. coli BL21 (DE3)
T2 sequence (P97571 29-356): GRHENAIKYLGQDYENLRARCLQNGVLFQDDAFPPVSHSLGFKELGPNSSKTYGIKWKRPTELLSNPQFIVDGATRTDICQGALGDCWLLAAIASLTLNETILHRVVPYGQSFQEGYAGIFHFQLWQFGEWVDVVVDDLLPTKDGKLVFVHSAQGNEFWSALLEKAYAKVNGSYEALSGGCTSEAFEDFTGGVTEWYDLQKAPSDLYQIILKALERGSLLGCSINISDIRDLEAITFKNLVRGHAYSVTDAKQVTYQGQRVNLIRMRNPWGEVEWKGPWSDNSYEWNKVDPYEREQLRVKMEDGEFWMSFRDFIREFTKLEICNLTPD
Briefly: Proteolytic activity of μI-II against synthetic peptide substrate SLY-MCA. Type of series: biochemical. To be noted: for inhibition of μI-II protease activity: qualitative, data not shown. The method, then:
(§1) Proteolytic digestion of the C105S m-calpain heterodimer was performed at 22° C. in a final volume of less than 150 μL, in 50 mM HEPES pH 7.6, 1 mg/mL calpain, 0.15 mg/mL μI-II, without divalent cations, or with 1 mM CaCl2 or 1 mM MgCl2. Autolysis of μI-II was performed under the same conditions but instead of the C105S m-calpain substrate, 2.5 mg/mL of μI-II was used. The reaction was stopped by the addition of 2×SDS sample buffer. At specific time intervals aliquots were removed and analyzed by SDS-PAGE using a 9% gel. Control reactions lacked the protease domain I–II. The activity of μI-II against the peptide substrate SLY-MCA (Sigma) was also tested in 50 mM HEPES pH 7.6, 200 mM NaCl, 1 mM DTT, 5–30 mM divalent cation (CaCl2, MgCl2, MnCl2, or ZnCl2), 0.75 mM SLY-MCA, 2.5 μM μI-II, in a final volume of 3 mL. MCA release was monitored in a LS50B Perkin Elmer luminescence spectrometer set with excitation and the emission wavelengths at 360 nm and 460 nm, respectively. Steady-state kinetics analysis was performed under the same buffer conditions but in the presence of 0.5 mM CaCl2, by varying SLY-MCA concentration from 0.02–1.5 mM. The steady-state parameters (kcat and KM) were obtained from the Michaelis-Menten plot.

Another series concerns the target T3, intact μ-calpain (Homo sapiens, UniProt P07384).
T3 sequence (P07384 1-714): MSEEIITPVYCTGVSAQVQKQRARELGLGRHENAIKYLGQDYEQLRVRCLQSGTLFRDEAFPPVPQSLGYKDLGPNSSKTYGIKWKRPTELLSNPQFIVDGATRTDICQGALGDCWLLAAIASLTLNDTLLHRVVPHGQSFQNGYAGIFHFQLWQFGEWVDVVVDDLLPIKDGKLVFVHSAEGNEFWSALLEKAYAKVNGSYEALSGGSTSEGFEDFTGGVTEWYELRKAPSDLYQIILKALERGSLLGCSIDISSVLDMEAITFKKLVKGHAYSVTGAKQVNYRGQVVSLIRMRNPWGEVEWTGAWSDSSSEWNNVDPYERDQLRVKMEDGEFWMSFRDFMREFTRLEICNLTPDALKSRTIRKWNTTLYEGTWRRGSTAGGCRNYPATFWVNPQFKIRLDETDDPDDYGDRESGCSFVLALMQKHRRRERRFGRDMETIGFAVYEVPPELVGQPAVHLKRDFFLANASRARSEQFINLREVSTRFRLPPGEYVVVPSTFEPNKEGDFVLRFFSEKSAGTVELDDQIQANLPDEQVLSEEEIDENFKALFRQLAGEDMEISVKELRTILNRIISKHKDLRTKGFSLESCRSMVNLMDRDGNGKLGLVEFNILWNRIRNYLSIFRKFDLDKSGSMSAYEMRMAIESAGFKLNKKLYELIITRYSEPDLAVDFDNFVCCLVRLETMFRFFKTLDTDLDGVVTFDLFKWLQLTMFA
T3 sequence (P04632 1-268 partner): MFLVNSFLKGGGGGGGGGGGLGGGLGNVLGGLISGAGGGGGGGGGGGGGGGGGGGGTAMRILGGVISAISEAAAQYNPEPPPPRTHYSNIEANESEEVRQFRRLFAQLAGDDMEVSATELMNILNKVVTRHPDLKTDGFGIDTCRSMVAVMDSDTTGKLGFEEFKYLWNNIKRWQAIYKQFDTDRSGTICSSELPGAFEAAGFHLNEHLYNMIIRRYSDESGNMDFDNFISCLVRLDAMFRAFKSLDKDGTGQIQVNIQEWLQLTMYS
As to conditions: reported values; read-out: Ca2+ for half-maximal activation of intact μ-calpain; cited from earlier work.

In series [3] the target is T1, μI-II (C115S). Put plainly: Intrinsic tryptophan fluorescence of μI-II during Ca2+ titration. As to conditions: read-out: Ca2+ requirement for activation of μI-II. Type of series: binding.
In series [4] the target is T4, μI-II (Rattus norvegicus, UniProt P97571).
T4 construct: extended from residue 29 (MG^29RHENA-) to residue 356; added N-terminal Met (N); made in house; host or cells: E. coli BL21 (DE3)
T4 sequence (P97571 29-356): as the sequence (P97571 29-356) above
Put plainly: Proteolysis of inactive C105S m-calpain heterodimer by μI-II. To be noted: 1 mM MgCl2. In kind it is biochemical. On the procedure:
as §1

The target in series [5] is T4, μI-II. Put plainly: Autolysis of μI-II in 1 mM CaCl2 (SDS-PAGE). As to conditions: 1 mM CaCl2, 20 hours. The method, then:
as §1

Entries after “also recorded” stand apart in the source; their conditions may differ. Like-named read-outs stand apart in the source and are kept apart here. Square brackets hold non-standard residues; d marks the D form. Peptide text beside a SMILES is read from it. Nle = CCCC[C@H](N)C(=O)O

T1 sequence (P97571 29-356 C115S): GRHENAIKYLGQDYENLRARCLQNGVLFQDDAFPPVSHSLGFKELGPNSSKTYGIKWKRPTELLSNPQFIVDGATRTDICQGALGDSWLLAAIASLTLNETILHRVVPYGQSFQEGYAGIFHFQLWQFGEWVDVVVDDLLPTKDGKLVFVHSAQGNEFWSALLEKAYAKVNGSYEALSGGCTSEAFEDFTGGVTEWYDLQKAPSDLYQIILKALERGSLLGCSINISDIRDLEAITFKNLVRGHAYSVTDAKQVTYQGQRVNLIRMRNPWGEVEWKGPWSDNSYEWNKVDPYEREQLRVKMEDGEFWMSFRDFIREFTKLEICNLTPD

Consider `CC(C)C[C@H](NC(=O)[C@H]1O[C@@H]1C(=O)O)C(=O)NCCCCN=C(N)N` (relative stereo) [E64, trans-epoxysuccinyl-L-leucilamido(4-guanidino)-butane], for which the “effect on W298 fluorescence of μI-II” value on μI-II (C115S) [1] (μI-II-E64 complex) is listed as “quenching”. Besides, the “SLY-MCA hydrolysis by E64-reacted μI-II (μI-II-E64)” value in series [2] (C115 μI-II reacted with E64 in 5 mM CaCl2) is recorded as “unable to hydrolyse SLY-MCA”. Further, the “inhibition of μI-II protease activity” value in series [2] was “abolished; also recorded: inhibited”.

As usually defined, the Hill coefficient is the slope factor of the fitted curve. As for `[Ca+2].[Cl-].[Cl-]` [CaCl2], the EC50 at intact μ-calpain is 5 to 50 µM; on μI-II (C115S) [1] (CaCl2 titration, excitation 280 nm, emission 340 nm, read-out: half-maximal change in intrinsic tryptophan fluorescence) it was 41.8 ± 7.1 µM; on μI-II (C115S) [3], roughly 40 µM. Further, the “CaCl2 concentration at which the fluorescence increase was >99% complete” value at μI-II (C115S) [1] was roughly 500 µM. For the same compound, the “CaCl2 concentration at which the fluorescence increase was first noticeable” value on μI-II (C115S) [1] is roughly 5 µM. The “total increase in the fluorescence intensity” value at μI-II (C115S) [1] (CaCl2 titration) is roughly 36.8±0.5%. Besides, the Hill coefficient on μI-II (C115S) [1] (CaCl2 titration fitted to the Hill equation) is 2.72±0.42.

On to `O=C(O)CN(CCN(CC(=O)O)CC(=O)O)CC(=O)O` [EDTA, reference compound], for which the “reversal of the Ca2+-induced fluorescence change” value at μI-II (C115S) [1] (data not shown) is “completely reversed”.

For the compound `[Cl-].[Cl-].[Mg+2]` [MgCl2], the “proteolysis of C105S m-calpain by μI-II when substituted for Ca2+” value at μI-II [4] is listed as “no proteolysis”. Further, the “ability to substitute for CaCl2 in the intrinsic tryptophan fluorescence change” value on μI-II (C115S) [1] is recorded as “unable to substitute”.

For the compound `[Cl][Mn][Cl]` [MnCl2], the “ability to substitute for CaCl2 in the intrinsic tryptophan fluorescence change” value at μI-II (C115S) [1] is “unable to substitute”.

Consider `[Cl-].[Cl-].[Zn+2]` [ZnCl2], for which, on μI-II (C115S) [1], the “ability to substitute for CaCl2 in the intrinsic tryptophan fluorescence change” value is listed as “unable to substitute”.

On to `CCCC[C@@H](C=O)NC(=O)[C@H](CC(C)C)NC(=O)[C@H](CC(C)C)NC(C)=O` [calpain inhibitor I] (Ac-Leu-Leu-[Nle]-aldehyde), for which the “inhibition of μI-II protease activity” value in series [2] was “abolished; also recorded: inhibited”.

`CC(=O)N[C@@H](CC(C)C)C(=O)N[C@@H](CC(C)C)C(=O)N[C@H](C=O)CCCNC(=N)N` [leupeptin]: the “inhibition of μI-II protease activity” value in series [2] is “abolished; also recorded: inhibited”.

For “μI-II: recombinant protease core, domains I and II (residues 29-356) of rat μ-calpain with C-terminal His tag”, the “μI-II still present after autodigestion” value in the series with μI-II [5] was “Over 50%”. In series [2] (SLY-MCA digestion), the “catalytic efficiency relative to the full enzyme” value is listed as roughly 2% and the “decrease in turnover (kcat) compared to intact m-calpain” value is 35 fold.

Values taken from patent US7236891B2, “Methods of determining polypeptide structure and function” (Queen's University at Kingston, priority 2001, dated 2007).
